Source: paper PMC10222209 (Pharmaceuticals, 2023)
Read-outs that look alike come from different tables or passages of the source.

Tests used:
22RV1 cells = test: Antiproliferative assay (resazurin, 72 h) in 22RV1 cells; format: cell-based; conditions: for IC50 / inhibition at 1 µM: Homo sapiens; for antiproliferative activity, in words: enzalutamide-resistant cell lines LNCaP95 and 22RV1, SAR statements
Protocol: (§1) 22Rv1 cells were obtained from ATCC. LNCaP95 cells were provided by Dr. Yan Dong’s laboratory (Tulane University School of Medicine). LNCaP95 cells were maintained in an RPMI1640 medium with charcoal-stripped serum (CSS). 22Rv1 cells were maintained in an RPMI1640 medium with 10% FBS. Cells were seeded in 96-well plates (5 × 10^3 cells/well) containing a 50 μL growth medium for 24 h. After medium removal, a 100 μL fresh medium containing individual compounds at different concentrations was added to each well and incubated at 37 °C for 72 h. Then, 20 μL of resazurin was added for 2 h before recording fluorescence at 560 nm (excitation) and 590 nm (emission) using a Victor microtiter plate fluorometer (Perkin-Elmer, Waltham, MA, USA).

LNCaP95 cells = test: Antiproliferative assay (resazurin, 72 h) in LNCaP95 cells; format: cell-based
Protocol: as §1

AR-full length (AR-FL) = target: T1, AR-full length (AR-FL) (Homo sapiens, UniProt P10275, T878A); test: AR downregulation in LNCaP95 cells (automated Western, Wes); conditions: for downregulating the AR-FL, in words: LNCaP95; for DC50: read-out: AR Downregulation IC50, LNCaP95, 24 h treatment
T1 sequence (P10275 1-920 T878A): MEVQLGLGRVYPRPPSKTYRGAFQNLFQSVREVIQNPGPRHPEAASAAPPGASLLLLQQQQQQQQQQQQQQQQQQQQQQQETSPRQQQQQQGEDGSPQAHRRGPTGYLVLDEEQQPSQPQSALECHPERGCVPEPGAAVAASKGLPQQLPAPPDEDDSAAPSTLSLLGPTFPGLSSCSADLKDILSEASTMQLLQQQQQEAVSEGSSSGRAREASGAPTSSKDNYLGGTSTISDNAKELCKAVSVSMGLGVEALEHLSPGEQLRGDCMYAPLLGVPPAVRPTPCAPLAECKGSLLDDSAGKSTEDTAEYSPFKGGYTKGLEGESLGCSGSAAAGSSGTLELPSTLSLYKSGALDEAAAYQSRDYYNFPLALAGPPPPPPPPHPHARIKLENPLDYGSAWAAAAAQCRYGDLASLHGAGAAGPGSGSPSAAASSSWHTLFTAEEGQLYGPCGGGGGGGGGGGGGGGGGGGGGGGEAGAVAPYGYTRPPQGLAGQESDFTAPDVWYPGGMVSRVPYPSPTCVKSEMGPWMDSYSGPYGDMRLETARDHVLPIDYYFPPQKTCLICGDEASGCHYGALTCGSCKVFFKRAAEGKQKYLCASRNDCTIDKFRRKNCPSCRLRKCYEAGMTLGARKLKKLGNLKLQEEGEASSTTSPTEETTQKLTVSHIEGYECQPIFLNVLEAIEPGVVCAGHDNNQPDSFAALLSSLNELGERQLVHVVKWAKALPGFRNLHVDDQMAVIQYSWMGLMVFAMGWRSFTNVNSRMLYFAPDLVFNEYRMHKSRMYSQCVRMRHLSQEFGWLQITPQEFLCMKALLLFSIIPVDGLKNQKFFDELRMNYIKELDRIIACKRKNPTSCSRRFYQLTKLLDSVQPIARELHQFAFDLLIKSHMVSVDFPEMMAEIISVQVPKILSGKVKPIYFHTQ
Protocol: (§2) Total AR and AR-V7 protein levels were determined using automated Western blotting (Wes Simple Western Analysis, ProteinSimple, San Jose, CA, USA). WES analyses were performed following the WES user manual. Briefly, LNCaP95 and 22RV1 cells were plated in a 12-well plate at a density of 2.5 × 10^5 cells per well. […] Samples were mixed with a master mix (ProteinSimple, San Jose, CA, USA) to give a final concentration of 0.2 mg/mL total protein, 1 × sample buffer, 1 × fluorescent molecular weight markers, and 40 mM DTT. Samples were heated at 95 °C for 5 min followed by centrifugation. Samples, blocking solution, primary antibodies, horseradish peroxidase-conjugated secondary antibodies, chemiluminescent substrate, and separation and stacking matrices were loaded into designated wells in a 384 well plate. After plate loading, fully automated electrophoresis and immunodetection took place in the capillary system. Proteins were separated by molecular weight at 375 V for 25 min, and primary and secondary antibodies were incubated for 30 min. The AR (Santa Cruz, Santa Cruz, CA, USA), AR-V7 (Santa Cruz, Santa Cruz, CA, USA), and actin (Novus, cat #NB600-503) antibodies were diluted in a proprietary antibody diluent at a 1:50 dilution ratio. Chemiluminescence was captured by a charge-coupled device camera, and the digital image was analyzed using Compass software 6.2.0 (ProteinSimple). The amount of each protein, relative to total protein content, was calculated based on peak areas. Total AR and AR-V7 levels were normalized to actin.

AR-V7 [1] = target: T2, AR-V7 (Homo sapiens, UniProt P10275); test: AR-V7 downregulation in 22RV1 cells (automated Western, Wes); conditions: read-out: AR-V7 Downregulation IC50; 22RV1, 24 h treatment
T2 sequence (P10275 1-644 isoform P10275-3): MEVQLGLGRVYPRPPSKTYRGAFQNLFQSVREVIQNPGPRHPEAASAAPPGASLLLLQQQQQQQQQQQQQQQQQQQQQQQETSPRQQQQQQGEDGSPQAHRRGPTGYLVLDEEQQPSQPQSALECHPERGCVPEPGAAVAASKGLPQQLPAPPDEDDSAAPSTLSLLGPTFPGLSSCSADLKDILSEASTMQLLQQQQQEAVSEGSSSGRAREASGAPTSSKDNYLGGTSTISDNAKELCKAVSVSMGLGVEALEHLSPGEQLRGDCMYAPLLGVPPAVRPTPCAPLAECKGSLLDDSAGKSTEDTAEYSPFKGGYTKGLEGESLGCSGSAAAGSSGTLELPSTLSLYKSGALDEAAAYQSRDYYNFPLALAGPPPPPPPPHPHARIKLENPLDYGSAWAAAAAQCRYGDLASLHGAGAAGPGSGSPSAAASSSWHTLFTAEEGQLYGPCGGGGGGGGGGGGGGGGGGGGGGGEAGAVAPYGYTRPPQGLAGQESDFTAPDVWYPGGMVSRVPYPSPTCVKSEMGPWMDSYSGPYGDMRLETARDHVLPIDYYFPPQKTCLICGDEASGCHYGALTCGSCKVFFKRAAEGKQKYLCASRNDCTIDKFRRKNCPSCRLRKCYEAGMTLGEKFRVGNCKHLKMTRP
Protocol: as §2

AR-V7 [2] = target: T2, AR-V7; test: AR-V7 downregulation in LNCaP95 cells (automated Western, Wes); conditions: for downregulating the AR-V7, in words: LNCaP95; for DC50: read-out: AR-V7 Downregulation IC50, LNCaP95, 24 h treatment
Protocol: as §2

[3] = 22RV1, 1.0 μM, read-out: Inhibitory Rate 22RV1 @1.0 μM
[4] = antiproliferation, 22RV1, 72 h, mean of three independent experiments, read-out: IC50 (μM) 22RV1
[5] = observed, −log IC50, 22RV1 antiproliferation, read-out: Obs pIC50 (converted)
[6] = LNCaP-95, antiproliferation, LNCaP95, 72 h, mean of three independent experiments, read-out: IC50 (μM) LNCaP95

What does the source list for `N#Cc1ccc(NC(=O)c2cc(Cl)ccc2O)cc1C(F)(F)F` [B3]?
IC50 (22RV1 cells; 22Rv1, 72 h, read-out: IC50 (μM) 22RV1): 0.695 ± 0.246 µM; inhibition at 1 µM (22RV1 cells; 22Rv1, read-out: Inhibitory Rate 22RV1 @1.0 μM): 34.9%; IC50 (22RV1 cells; 22Rv1, read-out: Obs pIC50 (converted)): 0.695 µM; IC50 (LNCaP95 cells; LNCaP-95, 72 h, read-out: IC50 (μM) LNCaP95): 0.354 ± 0.066 µM; downregulating the AR-FL, in words (AR-full length (AR-FL)): strong activity; DC50 (AR-full length (AR-FL)): 781 ± 512 nM; DC50 (AR-V7 [1]): 354 ± 134 nM; downregulating the AR-V7, in words (AR-V7 [2]): strong activity; DC50 (AR-V7 [2]): 850 ± 246 nM

`O=C(Nc1ccc(C(F)(F)F)c(C(F)(F)F)c1)c1cc(F)c(F)cc1O` [B14] was tested. Which inhibition at 1 µM (22RV1 cells; [3]) did it give?
The inhibition at 1 µM was 47.3%.

What about the IC50 (22RV1 cells; [4]) of the same compound?
Its IC50 is 0.382 ± 0.078 µM.

And the IC50 (22RV1 cells; [5])?
Its IC50 is 0.382 µM.

What about the IC50 (LNCaP95 cells; [6]) of the same compound?
Its IC50 is 0.199 ± 0.055 µM.

And the “downregulating the AR-FL, in words” value (AR-full length (AR-FL))?
The value was “strong activity”.

What about the DC50 (AR-full length (AR-FL)) of the same compound?
Its DC50 is 498 ± 185 nM.

And the DC50 (AR-V7 [1])?
Its DC50 is over 10000 nM.

What about the “downregulating the AR-V7, in words” value (AR-V7 [2]) of the same compound?
The value was “strong activity”.

What about the DC50 (AR-V7 [2]) of the same compound?
The DC50 was 491 ± 156 nM.

Which inhibition at 1 µM (22RV1 cells; [3]) does the source give for `O=C(Nc1ccc(C(F)(F)F)c(C(F)(F)F)c1)c1cc(Cl)ccc1O` [B1] here?
The inhibition at 1 µM was 59.2%.

And the IC50 (22RV1 cells; [4])?
The IC50 was 0.258 ± 0.097 µM.

What about the IC50 (22RV1 cells; [5]) of the same compound?
The IC50 was 0.258 µM.

What about the “antiproliferative activity, in words” value (22RV1 cells) of the same compound?
The value was “equivalent or improved anti-proliferation potency”.

What about the IC50 (LNCaP95 cells; [6]) of the same compound?
Its IC50 is 0.239 ± 0.072 µM.

And the “downregulating the AR-FL, in words” value (AR-full length (AR-FL))?
Its value is “strong activity”.

And the DC50 (AR-full length (AR-FL))?
The DC50 was 463 ± 224 nM.

What about the DC50 (AR-V7 [1]) of the same compound?
The DC50 was 4280 ± 1360 nM.

What about the “downregulating the AR-V7, in words” value (AR-V7 [2]) of the same compound?
Its value is “strong activity”.

And the DC50 (AR-V7 [2])?
The DC50 was 280 ± 117 nM.

How did the IC50 (22RV1 cells; 22Rv1, antiproliferation, approximate value, read-out: IC50 in 22RV1 (text)) turn out when `O=C(Nc1ccc(C(F)(F)F)c(C(F)(F)F)c1)c1cc(F)ccc1O` [B9] was run?
The IC50 was about 0.1 µM.

What about the inhibition at 1 µM (22RV1 cells; [3]) of the same compound?
The inhibition at 1 µM was 84.3%.

What about the IC50 (22RV1 cells; [4]) of the same compound?
Its IC50 is 0.0997 ± 0.0221 µM.

And the IC50 (22RV1 cells; [5])?
Its IC50 is 0.0991 µM.

And the “antiproliferative activity, in words” value (22RV1 cells)?
The value was “equivalent or improved anti-proliferation potency”.

What about the IC50 (LNCaP95 cells; [6]) of the same compound?
Its IC50 is 0.13 ± 0.033 µM.

And the IC50 (LNCaP95 cells; LNCaP-95, antiproliferation, approximate value, read-out: IC50 in LNCaP95 (text))?
Its IC50 is about 0.1 µM.

And the “downregulating the AR-FL, in words” value (AR-full length (AR-FL))?
Its value is “strong activity”.

What about the DC50 (AR-full length (AR-FL)) of the same compound?
Its DC50 is 551 ± 173 nM.

And the DC50 (AR-V7 [1])?
The DC50 was 2860 ± 950 nM.

And the “downregulating the AR-V7, in words” value (AR-V7 [2])?
Its value is “strong activity”.

And the DC50 (AR-V7 [2])?
The DC50 was 467 ± 204 nM.
